What was measured:
NMDAR2B = biological target: T1, NMDAR2B (Homo sapiens, UniProt Q13224); experiment: [3H]MK-801 binding, NMDAR2B expressing HEK cell membranes; format: biochemical; conditions: 50 μM glutamate; for EC50: read-out: NMDAR2B B: log EC50 (converted); for Emax: read-out: NMDAR2B A: % maximal [3H]MK-801 binding relative to 1 mM glycine
T1 construct: expressed in transfected cells; host or cells: HEK cells (membrane extract)
Experimental: (§1) Assays were conducted as described by Moskal et al., “GLYX-13: a monoclonal antibody-derived peptide that acts as an N-methyl-D-aspartate receptor modulator,” Neuropharmacology, 49, 1077-87, 2005. These studies were designed to determine if the test compounds act to facilitate NMDAR activation in NMDAR2A, NMDAR2B, NMDAR2C or NMDAR2D expressing HEK cell membranes as measured by increases in [^3H]MK-801 binding.
(§2) In the assay, 300 μg of NMDAR expressing HEK cell membrane extract protein was preincubated for 15 minutes at 25° C. in the presence of saturating concentrations of glutamate (50 μM) and varying concentrations of test compound (1×10^−15M−1×10^−7M), or 1 mM glycine. Following the addition of 0.3 μCi of [^3H]MK-801 (22.5 Ci/mmol), reactions were again incubated for 15 minutes at 25° C. (nonequilibrium conditions). Bound and free [^3H]MK-801 were separated via rapid filtration using a Brandel apparatus.
(§3) In analyzing the data, the DPM (disintegrations per minute) of [^3H]MK-801 remaining on the filter were measured for each concentration of test compound or for 1 mM glycine. The DPM values for each concentration of a ligand (N=2) were averaged. The baseline value was determined from the best fit curve of the DPM values modeled using the GraphPad program and the log(agonist) vs. response(three parameters) algorithm was then subtracted from all points in the dataset. The % maximal [^3H]MK-801 binding was then calculated relative to that of 1 mM glycine: all baseline subtracted DPM values were divided by the average value for 1 mM glycine. The EC50 and % maximal activity were then obtained from the best fit curve of the % maximal [^3H]MK-801 binding data modelled using the GraphPad program and the log(agonist) vs. response(three parameters) algorithm.
(§4) The tables below summarize the results for the wild type NMDAR agonists NMDAR2A, NMDAR2B, NMDAR2C, and NMDAR2D, and whether the compound is not an agonist (−), is an agonist (+), or is a strong agonist (++), where column A is based on the % maximal [^3H]MK-801 binding relative to 1 mM glycine (−=0; <100%=+; and >100%=++); and column B is based on log EC50 values (0=−; ≥1×10^−9M (e.g., −8)=+; and <1×10^−9M (e.g., −10)=++).

NMDAR2C = biological target: T2, NMDAR2C (Homo sapiens, UniProt Q14957); experiment: [3H]MK-801 binding, NMDAR2C expressing HEK cell membranes; format: biochemical; conditions: 50 μM glutamate; for EC50: read-out: NMDAR2C B: log EC50 (converted)
T2 construct: expressed in transfected cells; host or cells: HEK cells (membrane extract)
T2 sequence (Q14957 20-1233, species assumed, other chains not shown): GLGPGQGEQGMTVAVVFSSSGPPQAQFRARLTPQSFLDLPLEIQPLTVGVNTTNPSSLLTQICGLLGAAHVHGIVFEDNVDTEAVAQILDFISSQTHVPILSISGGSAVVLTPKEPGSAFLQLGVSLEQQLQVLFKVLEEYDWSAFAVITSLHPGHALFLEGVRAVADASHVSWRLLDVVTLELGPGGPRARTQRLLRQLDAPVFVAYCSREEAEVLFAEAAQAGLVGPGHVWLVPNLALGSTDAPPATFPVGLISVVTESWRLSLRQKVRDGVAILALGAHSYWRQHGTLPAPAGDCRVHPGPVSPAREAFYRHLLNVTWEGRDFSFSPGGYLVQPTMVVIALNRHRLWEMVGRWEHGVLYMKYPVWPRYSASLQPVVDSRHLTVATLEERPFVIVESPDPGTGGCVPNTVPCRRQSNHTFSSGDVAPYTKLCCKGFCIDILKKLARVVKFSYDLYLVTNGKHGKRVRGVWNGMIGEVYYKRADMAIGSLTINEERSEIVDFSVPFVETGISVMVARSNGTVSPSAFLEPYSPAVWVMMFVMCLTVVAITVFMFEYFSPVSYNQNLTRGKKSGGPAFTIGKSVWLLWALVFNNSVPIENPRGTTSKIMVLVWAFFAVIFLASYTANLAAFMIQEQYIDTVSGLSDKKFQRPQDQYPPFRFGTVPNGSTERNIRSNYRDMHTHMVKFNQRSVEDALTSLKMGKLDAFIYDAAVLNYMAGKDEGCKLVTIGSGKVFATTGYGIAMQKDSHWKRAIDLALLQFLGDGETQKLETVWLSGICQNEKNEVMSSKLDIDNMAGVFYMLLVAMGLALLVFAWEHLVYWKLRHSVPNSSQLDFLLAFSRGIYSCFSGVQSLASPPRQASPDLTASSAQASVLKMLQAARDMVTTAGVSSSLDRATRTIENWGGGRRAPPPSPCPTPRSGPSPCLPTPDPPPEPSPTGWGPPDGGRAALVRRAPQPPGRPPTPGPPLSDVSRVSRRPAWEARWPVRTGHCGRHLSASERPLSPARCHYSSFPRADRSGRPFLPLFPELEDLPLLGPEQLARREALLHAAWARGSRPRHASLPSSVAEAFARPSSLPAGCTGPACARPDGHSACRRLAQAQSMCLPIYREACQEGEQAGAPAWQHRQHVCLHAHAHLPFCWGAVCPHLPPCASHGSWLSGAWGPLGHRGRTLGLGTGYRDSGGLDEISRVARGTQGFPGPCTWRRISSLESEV
Experimental: as §1, §2, §3, §4

NMDAR2A = biological target: T3, NMDAR2A (Homo sapiens, UniProt Q12879); experiment: [3H]MK-801 binding, NMDAR2A expressing HEK cell membranes; format: biochemical; conditions: 50 μM glutamate; for EC50: read-out: NMDAR2A B: log EC50 (converted); for Emax: read-out: NMDAR2A A: % maximal [3H]MK-801 binding relative to 1 mM glycine
T3 construct: expressed in transfected cells; host or cells: HEK cells (membrane extract)
T3 sequence (Q12879 23-1464, species assumed, other chains not shown): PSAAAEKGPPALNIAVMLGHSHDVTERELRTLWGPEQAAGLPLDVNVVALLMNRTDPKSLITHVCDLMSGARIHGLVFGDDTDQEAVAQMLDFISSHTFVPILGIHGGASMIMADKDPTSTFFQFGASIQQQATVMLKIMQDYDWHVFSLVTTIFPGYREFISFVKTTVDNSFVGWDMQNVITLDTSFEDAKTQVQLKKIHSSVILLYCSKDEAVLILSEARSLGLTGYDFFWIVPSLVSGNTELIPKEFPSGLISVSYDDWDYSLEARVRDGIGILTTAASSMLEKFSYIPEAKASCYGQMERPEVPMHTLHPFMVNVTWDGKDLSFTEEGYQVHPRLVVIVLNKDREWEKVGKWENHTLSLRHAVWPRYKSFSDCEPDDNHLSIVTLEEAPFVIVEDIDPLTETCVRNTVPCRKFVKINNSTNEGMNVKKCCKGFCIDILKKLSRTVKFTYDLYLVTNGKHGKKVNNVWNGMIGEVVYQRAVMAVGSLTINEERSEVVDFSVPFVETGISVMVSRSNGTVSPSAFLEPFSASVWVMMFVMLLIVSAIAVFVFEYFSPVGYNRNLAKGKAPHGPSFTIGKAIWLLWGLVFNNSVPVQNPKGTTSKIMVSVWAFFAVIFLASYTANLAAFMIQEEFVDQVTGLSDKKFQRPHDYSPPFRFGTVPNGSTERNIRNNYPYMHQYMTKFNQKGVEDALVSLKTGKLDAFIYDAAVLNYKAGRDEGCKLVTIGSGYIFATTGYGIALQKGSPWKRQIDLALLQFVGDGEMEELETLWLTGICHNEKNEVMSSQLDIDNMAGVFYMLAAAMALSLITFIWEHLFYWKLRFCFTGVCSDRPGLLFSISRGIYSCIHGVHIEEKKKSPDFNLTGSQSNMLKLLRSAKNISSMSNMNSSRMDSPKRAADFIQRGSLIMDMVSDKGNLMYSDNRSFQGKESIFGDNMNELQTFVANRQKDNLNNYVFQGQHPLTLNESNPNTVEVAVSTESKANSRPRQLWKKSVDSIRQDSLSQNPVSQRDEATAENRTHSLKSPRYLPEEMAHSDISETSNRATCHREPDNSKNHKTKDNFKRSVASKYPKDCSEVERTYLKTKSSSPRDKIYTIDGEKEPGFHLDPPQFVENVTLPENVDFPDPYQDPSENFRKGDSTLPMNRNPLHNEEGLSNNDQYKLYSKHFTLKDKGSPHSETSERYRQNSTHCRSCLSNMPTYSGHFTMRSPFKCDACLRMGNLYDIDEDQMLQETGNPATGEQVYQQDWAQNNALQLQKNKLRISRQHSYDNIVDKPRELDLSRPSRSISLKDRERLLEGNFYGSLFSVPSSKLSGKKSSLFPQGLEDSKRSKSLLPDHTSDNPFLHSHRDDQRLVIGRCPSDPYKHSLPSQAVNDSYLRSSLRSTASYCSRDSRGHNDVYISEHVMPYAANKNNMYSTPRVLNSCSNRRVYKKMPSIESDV
Experimental: as §1, §2, §3, §4

NMDAR2D [1] = biological target: T4, NMDAR2D (Homo sapiens, UniProt O15399); experiment: [3H]MK-801 binding, NMDAR2D expressing HEK cell membranes; format: biochemical; conditions: 50 μM glutamate
T4 construct: expressed in transfected cells; host or cells: HEK cells (membrane extract)
Experimental: as §1, §2, §3, §4

[2] = tested on: rats' response (reduced floating time); experiment: Porsolt forced swim test; format: in vivo, Sprague Dawley rats; conditions: 0.1 mg/kg; for % reduction in float time: relative to vehicle group; for Significance vs. vehicle: Yes = p<=0.05 from vehicle
Experimental: A non-clinical in vivo pharmacology study (Porsolt assay) was performed to measure antidepressant-like effects. A negative control (0.5% sodium carboxymethyl cellulose in 0.9% sterile saline vehicle) and a positive control (fluoxetine) are shown for comparison against test compound. The study allowed for the evaluation of the effects of each compound on the Porsolt forced swim test as assessed by the rats' response (reduced floating time) during a 5-minute swimming test.
Male 2-3 month old Sprague Dawley rats were used (Harlan, Indianapolis, Ind.). Rats were housed in Lucite cages with aspen wood chip bedding, maintained on a 12:12 light:dark cycle (lights on at 5 AM), and given ad libitum access to Purina lab chow (USA) and tap water throughout the study.
The Porsolt forced swim test adapted for use in rats was performed as described by Burgdorf et al., (The long-lasting antidepressant effects of rapastinel (GLYX-13) are associated with a metaplasticity process in the medial prefrontal cortex and hippocampus. Neuroscience 308:202-211, 2015). Animals were placed in a 46 cm tall×20 cm in diameter clear glass tube filled to 30 cm with tap water (23±1° C.) for 15 min on the first day (habituation) and 5 min on the subsequent test day. Positive control fluoxetine was dosed 3 times (24 h, 5 h and 1 h) prior to testing. Animals were tested 1 h post-dosing with the test compounds or vehicle. Animals received a 15 min habituation session 1 day before the 5 min test. A subset of compounds tested at 1 h post-dosing were retested at 1 wk post-dosing in the same sets of animals. Water was changed after every other animal. Animals were videotaped, and floating time as defined as the minimal amount of effort required to keep the animals head above water was scored offline by a blinded experimenter with high inter-rater reliability (Pearson's r>0.9).
Each compound tested at dose level shown. Significance vs. vehicle group for each experiment is marked. […] A compound marked “No” was not statistically significant from vehicle. Data was averaged for test compound and vehicle groups (N approximately 8 per group) and the percent reduction in floating for group treated with test compound relative to group treated with vehicle is shown.

IV pharmacokinetics = format: in vivo, Sprague Dawley rats; conditions: Sprague Dawley, rat, in vivo, iv, 2 mg/kg, normal saline (compounds marked * in 1% NMP and 99% normal saline); for C0: read-out: C0; for Vd: read-out: Vss
From the text: The table below summarizes the results of the IV pharmacokinetics.

NMDAR2D [3] = biological target: T5, NMDAR2D (Homo sapiens, UniProt O15399+Q05586); experiment: [3H]MK-801 binding, NMDAR2D expressing HEK cell membranes; format: biochemical; conditions: 50 μM glutamate; for Emax: read-out: NMDAR2D A: % maximal [3H]MK-801 binding relative to 1 mM glycine; for EC50: read-out: NMDAR2D B: log EC50 (converted)
T5 construct: expressed in transfected cells; host or cells: HEK cells (membrane extract)
Experimental: as §1, §2, §3, §4

[4] = Oral pharmacokinetics (plasma, brain, CSF); conditions: rat, 10 mg/kg, per os; for bioavailability: % F; for AUC(0-t): AUClast
Experimental: Plasma, brain, and CSF samples were analyzed at various time points over a 24 hour period.

[5] = Sprague Dawley, plasma, po, normal saline (compounds marked * in 1% NMP and 99% normal saline)
[6] = Sprague Dawley, plasma, po, Tmax, normal saline (compounds marked * in 1% NMP and 99% normal saline)
[7] = normal saline (compounds marked * in 1% NMP and 99% normal saline)

T1 sequence (Q13224 27-1484, species assumed, other chains not shown): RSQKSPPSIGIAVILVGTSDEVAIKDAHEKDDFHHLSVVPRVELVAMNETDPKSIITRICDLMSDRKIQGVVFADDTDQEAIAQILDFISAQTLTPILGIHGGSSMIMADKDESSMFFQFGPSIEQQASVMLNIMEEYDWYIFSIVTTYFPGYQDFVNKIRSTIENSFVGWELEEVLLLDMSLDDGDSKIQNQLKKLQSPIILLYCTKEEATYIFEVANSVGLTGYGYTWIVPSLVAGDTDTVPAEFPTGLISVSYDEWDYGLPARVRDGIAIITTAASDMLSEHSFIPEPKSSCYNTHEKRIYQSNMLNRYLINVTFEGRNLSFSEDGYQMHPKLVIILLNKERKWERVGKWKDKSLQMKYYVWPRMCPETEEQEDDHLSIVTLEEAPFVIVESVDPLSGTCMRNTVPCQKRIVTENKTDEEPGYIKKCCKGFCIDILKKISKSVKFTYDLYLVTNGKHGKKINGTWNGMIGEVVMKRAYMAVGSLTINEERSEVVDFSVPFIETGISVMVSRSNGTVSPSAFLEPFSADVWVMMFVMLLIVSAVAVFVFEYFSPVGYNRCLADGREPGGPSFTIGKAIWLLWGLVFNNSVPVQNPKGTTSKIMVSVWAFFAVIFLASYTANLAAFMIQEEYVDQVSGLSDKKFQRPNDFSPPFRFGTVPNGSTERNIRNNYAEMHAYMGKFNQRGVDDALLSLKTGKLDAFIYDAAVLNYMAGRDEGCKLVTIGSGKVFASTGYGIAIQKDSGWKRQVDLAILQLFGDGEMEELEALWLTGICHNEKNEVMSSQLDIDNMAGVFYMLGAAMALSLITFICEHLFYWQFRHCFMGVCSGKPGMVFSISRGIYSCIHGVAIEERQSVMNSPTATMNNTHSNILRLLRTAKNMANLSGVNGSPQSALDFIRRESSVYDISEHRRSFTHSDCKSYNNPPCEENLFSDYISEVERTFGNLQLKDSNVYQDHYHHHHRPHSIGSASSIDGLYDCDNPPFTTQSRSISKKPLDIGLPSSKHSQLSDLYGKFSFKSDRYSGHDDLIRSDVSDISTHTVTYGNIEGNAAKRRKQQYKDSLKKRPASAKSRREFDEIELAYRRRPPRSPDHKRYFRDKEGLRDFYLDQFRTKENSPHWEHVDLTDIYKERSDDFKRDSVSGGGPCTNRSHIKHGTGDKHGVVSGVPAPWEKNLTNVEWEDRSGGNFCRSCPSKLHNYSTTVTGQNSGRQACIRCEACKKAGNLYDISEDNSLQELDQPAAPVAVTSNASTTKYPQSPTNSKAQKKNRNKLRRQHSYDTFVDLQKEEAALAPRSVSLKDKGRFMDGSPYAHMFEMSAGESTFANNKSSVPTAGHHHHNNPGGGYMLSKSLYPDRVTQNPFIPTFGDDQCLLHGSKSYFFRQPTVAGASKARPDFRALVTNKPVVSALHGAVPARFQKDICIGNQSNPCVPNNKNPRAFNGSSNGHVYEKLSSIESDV

Structure (SMILES)	EC50 (NMDAR2B) [nM]	NMDAR2C A: % maximal [3H]MK-801 binding relative to 1 mM glycine (NMDAR2C)	EC50 (NMDAR2A) [nM]	AUC(0-t) (IV pharmacokinetics) [ng·h/mL]	clearance (IV pharmacokinetics) [mL/min/kg]	half-life (IV pharmacokinetics) [min]	C0 (IV pharmacokinetics) [ng/mL]	Vd (IV pharmacokinetics) [L/kg]	Emax (NMDAR2B) [%]	Emax (NMDAR2A) [%]	Emax (NMDAR2D [3]) [%]	EC50 (NMDAR2D [3]) [nM]	bioavailability ([4]; Sprague Dawley, plasma, po) [%]	AUC(0-t) [4, 5] [ng·h/mL]	Cmax [4, 5] [ng/mL]	Tmax [4, 6] [min]	CSF Cmax [4] [ng/mL]	Brain Cmax [4] [ng/mL]	NMDAR2B A: % maximal [3H]MK-801 binding relative to 1 mM glycine (NMDAR2B)	NMDAR2A A: % maximal [3H]MK-801 binding relative to 1 mM glycine (NMDAR2A)	also measured
CN1CCNC2(CNC2=O)C1 (stereo not drawn) [EH-2, 8-Methyl-2,5,8-Triazaspiro[3.5]Nonan-1-One]	< 1	− (−=0)	< 1																+ (<100%=+)	+ (<100%=+)	NMDAR2D A: % maximal [3H]MK-801 binding relative to 1 mM glycine (NMDAR2D [1]): − (−=0)
C[C@@H](O)[C@H](N)C(=O)N1CCN(C(=O)OC(C)(C)C)CC12CNC2=O (single isomer, unassigned) [EC-1, Tert-Butyl 5-(L-Threonyl)-1-Oxo-2,5,8-Triazaspiro[3.5]Nonane Carboxylate]			< 1						0	< 100	< 100	< 1									
CC(C)(C)OC(=O)N1CCNC2(CNC2=O)C1 (single isomer, unassigned) [EB-1, Tort-Butyl 1-Oxo-2,5,8-Triazaspiro[3.5]Nonane-8-Carboxylate]		+ (<100%=+)	< 1							< 100	< 100	< 1							− (−=0)		EC50 (NMDAR2C): > 1 nM
O=C1NCC12CNCCN2Cc1ccccc1 (single isomer, unassigned) [ED-1, 5-Benzyl-2,5,8-Triazaspiro[3.5]Nonan-1-One]				1020	32.1	47.4	1180	1.88		0	< 100	< 1			2800				− (−=0)		% F [4]: 138%; AUClast [4, 7]: 7053.49 ng·h/mL; Tmax [4, 7]: 40.2 min
O=C1NCC12CN(Cc1ccccc1)CCN2Cc1ccccc1 (single isomer, unassigned) [EA-1, 5,8-Dibenzyl-2,5,8-Triazaspiro[3.5]Nonan-1-One]	< 1		< 1								0								+ (<100%=+)	+ (<100%=+)	
CC(C)(C)OC(=O)N1CCN(C(=O)OC(C)(C)C)C2(CNC2=O)C1 (single isomer, unassigned) [EE-1, Di-Tert-Butyl 1-Oxo-2,5,8-Triazaspiro[3.5]Nonane-5,8-Dicarboxylate]	< 1	− (−=0)							< 100	0	0										

Further lines, with some results ahead:

EC50 (NMDAR2B) [nM]	NMDAR2C A: % maximal [3H]MK-801 binding relative to 1 mM glycine (NMDAR2C)	EC50 (NMDAR2A) [nM]	AUC(0-t) (IV pharmacokinetics) [ng·h/mL]	clearance (IV pharmacokinetics) [mL/min/kg]	half-life (IV pharmacokinetics) [min]	C0 (IV pharmacokinetics) [ng/mL]	Vd (IV pharmacokinetics) [L/kg]	Emax (NMDAR2B) [%]	Emax (NMDAR2A) [%]	Emax (NMDAR2D [3]) [%]	EC50 (NMDAR2D [3]) [nM]	bioavailability ([4]; Sprague Dawley, plasma, po) [%]	AUC(0-t) [4, 5] [ng·h/mL]	Cmax [4, 5] [ng/mL]	Tmax [4, 6] [min]	CSF Cmax [4] [ng/mL]	Brain Cmax [4] [ng/mL]	Structure (SMILES)	NMDAR2B A: % maximal [3H]MK-801 binding relative to 1 mM glycine (NMDAR2B)	NMDAR2A A: % maximal [3H]MK-801 binding relative to 1 mM glycine (NMDAR2A)	also measured
< 1	− (−=0)		593	57.2	31.2	1670	1.44	< 100	0	< 100	< 1	69	2050	1540	30	232	121	CN1CCN(C(=O)OC(C)(C)C)CC12CN(CC(N)=O)C2=O (stereo not drawn) [ER-117]			% reduction in float time ([2]; 1 h post-dose): 55.0%; Significance vs. vehicle ([2]; 1 h post-dose): Yes
< 1	+ (<100%=+)									0								C[C@@H](O)[C@H](N)C(=O)N1CCN(Cc2ccccc2)C2(CNC2=O)C1 (single isomer, unassigned) [EL-2, 8-(L-Threonyl)-5-Benzyl-2,5,8-Triazaspiro[3.5]Nonan-1-One]			EC50 (NMDAR2C): < 1 nM
		< 1	2260	15	48	6460	0.4			< 100	< 1	51	5740	1620	100	7	0	C[C@@H](O)[C@H](N)C(=O)N1CCNC2(CNC2=O)C1 (single isomer, unassigned) [EK-1, 8-(L-Threonyl)-2,5,8-Triazaspiro[3.5]Nonan-1-One]	− (−=0)	+ (<100%=+)	
< 1		< 1	1790	18.2	279	2770	1.74					72	6470	4760	19.8	520	758	CC(=O)N1CCN(Cc2ccccc2)C2(CCNC2=O)C1 (stereo not drawn) [ES-319]	+ (<100%=+)	+ (<100%=+)	% reduction in float time ([2]; 1 wk post-dose): 60.5%; Significance vs. vehicle ([2]; 1 wk post-dose): Yes; % reduction in float time ([2]; 1 h post-dose): 76.3%; Significance vs. vehicle ([2]; 1 h post-dose): Yes
